Experiment [1] deals with Canis familiaris. Nature of the experiment: Diuretic effect in mongrel dog assessed as urinary excretion of water at 0.25 mg/kg, po after 3 hrs (reference value: 0.93 +/- 0.35 ml/kg). It is filed as functional, Canis lupus familiaris, Urine.
In experiment [2] the test system is Canis familiaris. Nature of the experiment: Diuretic effect in mongrel dog assessed as urinary excretion of Cl- at 0.25 mg/kg, po after 3 hrs (reference value: 0.08 +/- 0.02 mequiv/kg). It is filed as functional, Canis lupus familiaris, Urine.
For experiment [3], the system named is Canis familiaris. Description: Diuretic effect in mongrel dog assessed as urinary excretion of water at 1 mg/kg, iv after 3 hrs (reference value: 0.93 +/- 0.35 ml/kg). It is filed as functional, Canis lupus familiaris, Urine.
For experiment [4], the system named is Canis familiaris. Nature of the experiment: Diuretic effect in mongrel dog assessed as urinary excretion of Na+ at 1 mg/kg, iv after 3 hrs (reference value: 0.10 +/- 0.02 mequiv/kg). It is filed as functional, Canis lupus familiaris, Urine.
The subject of experiment [5] is Canis familiaris. Description: Diuretic effect in mongrel dog assessed as urinary excretion of K+ at 0.25 mg/kg, po after 3 hrs (reference value: 0.16 +/- 0.01 mequiv/kg). It is filed as functional, Canis lupus familiaris, Urine.
For experiment [6], the system named is Canis familiaris. Nature of the experiment: Diuretic effect in mongrel dog assessed as urinary excretion of Na+ at 0.25 mg/kg, po after 3 hrs (reference value: 0.10 +/- 0.02 mequiv/kg). It is filed as functional, Canis lupus familiaris, Urine.
Experiment [7] has as its system Canis familiaris. Nature of the experiment: Diuretic effect in mongrel dog assessed as urinary excretion of K+ at 1 mg/kg, iv after 3 hrs (reference value: 0.16 +/- 0.01 mequiv/kg). It is filed as functional, Canis lupus familiaris, Urine.
Experiment [8] relates to Canis familiaris. Nature of the experiment: Diuretic effect in mongrel dog assessed as urinary excretion of Cl- at 1 mg/kg, po after 3 hrs (reference value: 0.08 +/- 0.02 mequiv/kg).
The test system of experiment [9] is Canis familiaris. Description: Diuretic effect in mongrel dog assessed as urinary excretion of K+ at 0.01 mg/kg, po after 3 hrs (reference value: 0.16 +/- 0.01 mequiv/kg). It is filed as functional, Canis lupus familiaris, Urine.
Experiment [10] deals with Canis familiaris. Nature of the experiment: Diuretic effect in mongrel dog assessed as urinary excretion of Cl- at 0.1 mg/kg, iv after 3 hrs (reference value: 0.08 +/- 0.02 mequiv/kg). It is filed as functional, Canis lupus familiaris, Urine.
Experiment [11] deals with Canis familiaris. Nature of the experiment: Diuretic effect in mongrel dog assessed as urinary excretion of water at 0.25 mg/kg, iv after 3 hrs (reference value: 0.93 +/- 0.35 ml/kg). It is filed as functional, Canis lupus familiaris, Urine.
The subject of experiment [12] is Canis familiaris. Nature of the experiment: Diuretic effect in mongrel dog assessed as urinary excretion of Na+ at 0.1 mg/kg, iv after 3 hrs (reference value: 0.10 +/- 0.02 mequiv/kg). It is filed as functional, Canis lupus familiaris, Urine.
Experiment [13] relates to Canis familiaris. Nature of the experiment: Diuretic effect in mongrel dog assessed as urinary excretion of Na+ at 0.25 mg/kg, iv after 3 hrs (reference value: 0.10 +/- 0.02 mequiv/kg). It is filed as functional, Canis lupus familiaris, Urine.
The test system of experiment [14] is Canis familiaris. Description: Diuretic effect in mongrel dog assessed as urinary excretion of water at 0.1 mg/kg, iv after 3 hrs (reference value: 0.93 +/- 0.35 ml/kg). It is filed as functional, Canis lupus familiaris, Urine.
The subject of experiment [15] is Canis familiaris. Description: Diuretic effect in mongrel dog assessed as urinary excretion of K+ at 0.1 mg/kg, iv after 3 hrs (reference value: 0.16 +/- 0.01 mequiv/kg). It is filed as functional, Canis lupus familiaris, Urine.
Experiment [16] relates to Canis familiaris. Nature of the experiment: Diuretic effect in mongrel dog assessed as urinary excretion of K+ at 0.25 mg/kg, iv after 3 hrs (reference value: 0.16 +/- 0.01 mequiv/kg). It is filed as functional, Canis lupus familiaris, Urine.
For experiment [17], the system named is Canis familiaris. Description: Diuretic effect in mongrel dog assessed as urinary excretion of water at 0.01 mg/kg, iv after 3 hrs (reference value: 0.93 +/- 0.35 ml/kg).
For experiment [18], the system named is Canis familiaris. Nature of the experiment: Diuretic effect in mongrel dog assessed as urinary excretion of Cl- at 0.25 mg/kg, iv after 3 hrs (reference value: 0.08 +/- 0.02 mequiv/kg). It is filed as functional, Canis lupus familiaris, Urine.
The test system of experiment [19] is Canis familiaris. Nature of the experiment: Diuretic effect in mongrel dog assessed as urinary excretion of Na+ at 0.01 mg/kg, po after 3 hrs (reference value: 0.10 +/- 0.02 mequiv/kg). It is filed as functional, Canis lupus familiaris, Urine.
In experiment [20] the test system is Canis familiaris. Description: Diuretic effect in mongrel dog assessed as urinary excretion of Cl- at 0.01 mg/kg, po after 3 hrs (reference value: 0.08 +/- 0.02 mequiv/kg). It is filed as functional, Canis lupus familiaris, Urine.
Experiment [21] deals with Canis familiaris. Description: Diuretic effect in mongrel dog assessed as urinary excretion of Cl- at 1 mg/kg, po after 3 hrs (reference value: 0.08 +/- 0.02 mequiv/kg). It is filed as functional, Canis lupus familiaris, Urine.
The test system of experiment [22] is Canis familiaris. Nature of the experiment: Diuretic effect in mongrel dog assessed as urinary excretion of Cl- at 5 mg/kg, po after 3 hrs (reference value: 0.08 +/- 0.02 mequiv/kg). It is filed as functional, Canis lupus familiaris, Urine.
Experiment [23] relates to Canis familiaris. Nature of the experiment: Diuretic effect in mongrel dog assessed as urinary excretion of Na+ at 0.25 mg/kg, po after 6 hrs (reference value: 0.27 +/- 0.09 mequiv/kg). It is filed as functional, Canis lupus familiaris, Urine.
In experiment [24] the test system is Canis familiaris. Nature of the experiment: Diuretic effect in mongrel dog assessed as urinary excretion of Na+ at 5 mg/kg, po after 3 hrs (reference value: 0.10 +/- 0.02 mequiv/kg). It is filed as functional, Canis lupus familiaris, Urine.
Experiment [25] deals with Canis familiaris. Description: Diuretic effect in mongrel dog assessed as urinary excretion of K+ at 5 mg/kg, iv after 3 hrs (reference value: 0.16 +/- 0.01 mequiv/kg). It is filed as functional, Canis lupus familiaris, Urine.
Experiment [26] concerns Canis familiaris. Description: Diuretic effect in mongrel dog assessed as urinary excretion of Na+ at 5 mg/kg, iv after 3 hrs (reference value: 0.10 +/- 0.02 mequiv/kg). It is filed as functional, Canis lupus familiaris, Urine.
The test system of experiment [27] is Canis familiaris. Nature of the experiment: Diuretic effect in mongrel dog assessed as urinary excretion of Cl- at 0.25 mg/kg, iv after 3 hrs (reference value: 0.08 +/- 0.02 mequiv/kg).
Experiment [28] relates to Canis familiaris. Nature of the experiment: Diuretic effect in mongrel dog assessed as urinary excretion of K+ at 0.25 mg/kg, po after 6 hrs (reference value: 0.24 +/- 0.03 mequiv/kg). It is filed as functional, Canis lupus familiaris, Urine.
The subject of experiment [29] is Canis familiaris. Nature of the experiment: Diuretic effect in mongrel dog assessed as urinary excretion of K+ at 1 mg/kg, po after 3 hrs (reference value: 0.16 +/- 0.01 mequiv/kg). It is filed as functional, Canis lupus familiaris, Urine.
In experiment [30] the test system is Canis familiaris. Nature of the experiment: Diuretic effect in mongrel dog assessed as urinary excretion of Na+ at 1 mg/kg, po after 6 hrs (reference value: 0.27 +/- 0.09 mequiv/kg). It is filed as functional, Canis lupus familiaris, Urine.
Experiment [31] deals with Canis familiaris. Nature of the experiment: Diuretic effect in mongrel dog assessed as urinary excretion of Na+ at 1 mg/kg, po after 3 hrs (reference value: 0.10 +/- 0.02 mequiv/kg). It is filed as functional, Canis lupus familiaris, Urine.
In experiment [32] the test system is Canis familiaris. Nature of the experiment: Diuretic effect in mongrel dog assessed as urinary excretion of water at 1 mg/kg, po after 3 hrs (reference value: 0.93 +/- 0.35 ml/kg). It is filed as functional, Canis lupus familiaris, Urine.
For experiment [33], the system named is Canis familiaris. Nature of the experiment: Diuretic effect in mongrel dog assessed as urinary excretion of K+ at 1 mg/kg, po after 6 hrs (reference value: 0.24 +/- 0.03 mequiv/kg). It is filed as functional, Canis lupus familiaris, Urine.
Experiment [34] relates to Canis familiaris. Description: Diuretic effect in mongrel dog assessed as urinary excretion of water at 1 mg/kg, po after 6 hrs (reference value: 1.73 +/- 0.46 ml/kg). It is filed as functional, Canis lupus familiaris, Urine.
Experiment [35] has as its system Canis familiaris. Description: Diuretic effect in mongrel dog assessed as urinary excretion of K+ at 5 mg/kg, po after 3 hrs (reference value: 0.16 +/- 0.01 mequiv/kg). It is filed as functional, Canis lupus familiaris, Urine.
In experiment [36] the test system is Canis familiaris. Nature of the experiment: Diuretic effect in mongrel dog assessed as urinary excretion of Cl- at 1 mg/kg, iv after 3 hrs (reference value: 0.08 +/- 0.02 mequiv/kg). It is filed as functional, Canis lupus familiaris, Urine.
For experiment [37], the system named is Canis familiaris. Description: Diuretic effect in mongrel dog assessed as urinary excretion of Cl- at 1 mg/kg, po after 6 hrs (reference value: 0.17 +/- 0.09 mequiv/kg). It is filed as functional, Canis lupus familiaris, Urine.
Experiment [38] has as its system Canis familiaris. Nature of the experiment: Diuretic effect in mongrel dog assessed as urinary excretion of water at 5 mg/kg, po after 3 hrs (reference value: 0.93 +/- 0.35 ml/kg). It is filed as functional, Canis lupus familiaris, Urine.
Experiment [39] deals with Canis familiaris. Nature of the experiment: Diuretic effect in mongrel dog assessed as urinary excretion of water at 5 mg/kg, iv after 3 hrs (reference value: 0.93 +/- 0.35 ml/kg). It is filed as functional, Canis lupus familiaris, Urine.
The test system of experiment [40] is Canis familiaris. Description: Diuretic effect in mongrel dog assessed as urinary excretion of water at 0.25 mg/kg, po after 6 hrs (reference value: 1.73 +/- 0.46 ml/kg). It is filed as functional, Canis lupus familiaris, Urine.
For experiment [41], the system named is Canis familiaris. Nature of the experiment: Diuretic effect in mongrel dog assessed as urinary excretion of Cl- at 5 mg/kg, iv after 3 hrs (reference value: 0.08 +/- 0.02 mequiv/kg). It is filed as functional, Canis lupus familiaris, Urine.

With `CCCCSc1cc(C(=O)O)cc(NC=O)c1C(=O)c1ccccc1`, the Activity in experiment [1] worked out at 17 mL/kg; in experiment [2] it was 0.6 milliequivalent/kg; in experiment [3] it was 21 mL/kg; in experiment [4], 2.3 milliequivalent/kg; in [5] it was 0.28 milliequivalent/kg; in experiment [6], 0.5 milliequivalent/kg. In addition, the results for the Activity in experiment [7] and in experiment [8] were 0.65 milliequivalent/kg and 2.1 milliequivalent/kg, respectively.
As to `CCCCNc1cc(C(=O)O)cc(S(N)(=O)=O)c1Oc1ccccc1` [BUMETANIDE], the Activity in [9] was 0.27 milliequivalent/kg; in [10], 3.5 milliequivalent/kg; in [11], 39 mL/kg; in experiment [12] it was 2.4 milliequivalent/kg; in [13] it was 4 milliequivalent/kg; in experiment [14], 26 mL/kg. In addition, the Activity in experiment [15] turned out to be 0.44 milliequivalent/kg; in experiment [16] it was 0.84 milliequivalent/kg; in experiment [17] it was 10 mL/kg; in experiment [18] it was 5.7 milliequivalent/kg; in experiment [19], 0.92 milliequivalent/kg; in experiment [20] it was 1.4 milliequivalent/kg.
`NS(=O)(=O)c1cc(C(=O)O)cc(OCc2ccccc2)c1C(=O)c1ccccc1`: the Activity in experiment [1] is 33 mL/kg; in experiment [10], 2 milliequivalent/kg; in experiment [2], 4.4 milliequivalent/kg; in experiment [5], 0.89 milliequivalent/kg; in [12], 1 milliequivalent/kg; in experiment [6] it was 3.6 milliequivalent/kg. In addition, the Activity in experiment [14] was 12 mL/kg; in [15], 0.42 milliequivalent/kg.
In the case of `O=CNc1cc(C(=O)O)cc(OCc2ccccc2)c1C(=O)c1ccccc1`, the Activity in experiment [21] worked out at 3.3 milliequivalent/kg; in [10] it was 1.3 milliequivalent/kg; in experiment [22] it was 4.5 milliequivalent/kg; in experiment [23], 2.1 milliequivalent/kg; in experiment [24], 3.1 milliequivalent/kg; in [25], 0.63 milliequivalent/kg. For the same molecule, the Activity in [26] was determined as 2.2 milliequivalent/kg; in experiment [3] it was 9 mL/kg; in [27], 2.6 milliequivalent/kg; in experiment [4], 1.1 milliequivalent/kg; in experiment [28], 0.41 milliequivalent/kg; in experiment [29], 0.51 milliequivalent/kg. Moreover, the Activity in experiment [12] is 1 milliequivalent/kg; in experiment [30], 2.5 milliequivalent/kg; in experiment [31], 2.5 milliequivalent/kg; in experiment [7], 0.49 milliequivalent/kg; in experiment [32], 21 mL/kg; in [14], 9 mL/kg. The Activity came to 0.24 milliequivalent/kg in experiment [15]; 0.49 milliequivalent/kg in experiment [33]; 22 mL/kg in experiment [34]; 1.09 milliequivalent/kg in experiment [35]; 3.1 milliequivalent/kg in experiment [36]; 3.3 milliequivalent/kg in experiment [37]. The Activity is 33 mL/kg in experiment [38], 21 mL/kg in experiment [39], 18 mL/kg in experiment [40] and 4.5 milliequivalent/kg in experiment [41].
For the molecule `O=CNc1cc(C(=O)O)cc(SCc2ccccc2)c1C(=O)c1ccccc1`, the Activity worked out at 10 mL/kg in [1]; 0.7 milliequivalent/kg in [2]; 26 mL/kg in experiment [3]; 2.8 milliequivalent/kg in experiment [4]; 0.1 milliequivalent/kg in [5]; 0.5 milliequivalent/kg in [6]. For the same molecule, the results for the Activity in experiment [7] and in [8] were 0.27 milliequivalent/kg and 3.5 milliequivalent/kg, respectively.

For the origin of these results see ChEMBL document CHEMBL3272011, “Aminobenzoic acid diuretics. 9. 3,4-Disubstituted 5-acylaminobenzoic acids and related compounds” (1977).
